{
  "source": "patent US20210113501A1",
  "about": "“METHOD OF ADMINISTERING BETA-HYDROXY-BETA-METHYLBUTYRATE (HMB)” (Metabolic Technologies, Inc., priority 2009, published 2021)",
  "assay": "Study 2 blood chemistry",
  "assay_type": "in vivo, human",
  "conditions": "for Aspartate Aminotransferase / Gamma-glutamyl: in U/L (unit assumed)",
  "experimental": "Study 2 design. Study 2 was conducted similar to study 1 with the following modifications. In study 2, plasma levels of HMB were measured for 1440 min (24 h) and total urine collection was also performed for measurement of urinary HMB excretion during this period. After the 180 min blood sample, the subjects were allowed to leave the laboratory and were instructed to return to the laboratory for additional blood samples at 360, 720, and 1440 min after the ingestion of the supplement. As in study 1, each subject took each of the treatments with at least a one week washout period between treatments. Samples were again stored frozen at −70° C. for analysis of plasma and urinary HMB concentrations. Pre-ingestion, 180 min and 1440 min blood samples were again assayed for the same measurements already for study 1. Subjects were provided with a standardized lunch after the 180 min blood sampling and instructed to eat this at approximately 240 min post ingestion. Following the 720 min blood sample, subjects were instructed to eat a normal evening meal before 10 pm. Subjects reported back to the laboratory the following morning for the fasted 1440 min blood sample. A urine collection container was provided and subjects collected all urine produced during the experimental 24 h experimental period. The urine was stored refrigerated when not being collected. Urine volumes were measured and samples of the total urine collection were taken and stored frozen at −70° C. until analyzed for HMB.\nThe data were analyzed using a crossover design with Proc GLM in SAS. (45) For the timed sampling of plasma HMB a repeated measures polynomial model was used. The model included subject, order, and treatment main effects and time by treatment interaction where appropriate. For other parameters Proc GLM was also used with subject, order, and treatment main effects and the p values are reported for the treatment main effect. Statistical significance was determined for p<0.05 and a trend was determined for 0.05<p<0.10.",
  "data": [
    {"smiles": "CC(C)(O)CC(=O)O", "note": "[HMB-Acid Gel Swallow, 3-hydroxy-3-methylbutyric acid]", "values": [
      {"measurement": "A:G Ratio", "setting": "After (24 h)", "value": "1.8 ± 0.1"},
      {"measurement": "Alanine Aminotransferase", "setting": "After (24 h)", "value": "16.4 ± 1.7", "unit": "IU/L"},
      {"measurement": "Albumin", "setting": "After (24 h)", "value": "4.3 ± 0.1", "unit": "g/dL"},
      {"measurement": "Alkaline Phosphatase", "setting": "After (24 h)", "value": "74.1 ± 7.6", "unit": "IU/L"},
      {"measurement": "Blood Urea Nitrogen", "setting": "After (24 h)", "value": "13.9 ± 1.4", "unit": "mg/dL"},
      {"measurement": "CO2", "setting": "After (24 h)", "value": "27.8 ± 0.9", "unit": "mEq/L"},
      {"measurement": "Chloride", "setting": "After (24 h)", "value": "102.8 ± 0.7", "unit": "mEq/L"},
      {"measurement": "Cholesterol Ratio", "setting": "After (24 h)", "value": "3.2 ± 0.2"},
      {"measurement": "Creatinine", "setting": "After (24 h)", "value": "1.0 ± 0.1", "unit": "mg/dL"},
      {"measurement": "Direct Bilirubin", "setting": "After (24 h)", "value": "0.1 ± 0.04", "unit": "mg/dL"},
      {"measurement": "Globulin", "setting": "After (24 h)", "value": "2.4 ± 0.2", "unit": "g/dL"},
      {"measurement": "Glucose", "setting": "After (24 h)", "value": "79.9 ± 1.9", "unit": "mg/dL"},
      {"measurement": "HDL", "setting": "After (24 h)", "value": "56.4 ± 2.9", "unit": "mg/dL"},
      {"measurement": "Iron", "setting": "After (24 h)", "value": "53.8 ± 10.8", "unit": "µg/dL"},
      {"measurement": "Iron Binding Capacity", "setting": "After (24 h)", "value": "395.1 ± 34.7", "unit": "µg/dL"},
      {"measurement": "Iron Saturation", "setting": "After (24 h)", "value": "16.9 ± 4.6", "unit": "%"},
      {"measurement": "LDL", "setting": "After (24 h)", "value": "96.1 ± 8.1", "unit": "mg/dL"},
      {"measurement": "Lactate Dehydrogenase", "setting": "After (24 h)", "value": "136.6 ± 11.6", "unit": "IU/L"},
      {"measurement": "Phosphorus", "setting": "After (24 h)", "value": "4.5 ± 0.2", "unit": "mg/dL"},
      {"measurement": "Potassium", "setting": "After (24 h)", "value": "4.7 ± 0.2", "unit": "mEq/L"},
      {"measurement": "Protein", "setting": "After (24 h)", "value": "6.7 ± 0.2", "unit": "g/dL"},
      {"measurement": "Sodium", "setting": "After (24 h)", "value": "141.5 ± 0.9", "unit": "mEq/L"},
      {"measurement": "Total Bilirubin", "setting": "After (24 h)", "value": "0.5 ± 0.1", "unit": "mg/dL"},
      {"measurement": "Total Cholesterol", "setting": "After (24 h)", "value": "176.9 ± 11.8", "unit": "mg/dL"},
      {"measurement": "Triglycerides", "setting": "After (24 h)", "value": "121.4 ± 22.7", "unit": "mg/dL"},
      {"measurement": "UIBC", "setting": "After (24 h)", "value": "335.1 ± 42.1", "unit": "µg/dL"},
      {"measurement": "Uric Acid", "setting": "After (24 h)", "value": "4.8 ± 0.3", "unit": "mg/dL"},
      {"measurement": "Aspartate Aminotransferase", "setting": "After (24 h)", "value": "21.3 ± 0.7"},
      {"measurement": "Gamma-glutamyl", "setting": "After (24 h)", "value": "14.0 ± 1.0"},
      {"measurement": "A:G Ratio", "setting": "Before", "value": "1.9 ± 0.2"},
      {"measurement": "Alanine Aminotransferase", "setting": "Before", "value": "16.4 ± 1.6", "unit": "IU/L"},
      {"measurement": "Albumin", "setting": "Before", "value": "4.1 ± 0.1", "unit": "g/dL"},
      {"measurement": "Alkaline Phosphatase", "setting": "Before", "value": "64.8 ± 7.3", "unit": "IU/L"},
      {"measurement": "Blood Urea Nitrogen", "setting": "Before", "value": "14.5 ± 1.4", "unit": "mg/dL"},
      {"measurement": "CO2", "setting": "Before", "value": "24.8 ± 1.0", "unit": "mEq/L"},
      {"measurement": "Chloride", "setting": "Before", "value": "103.1 ± 0.8", "unit": "mEq/L"},
      {"measurement": "Cholesterol Ratio", "setting": "Before", "value": "3.2 ± 0.2"},
      {"measurement": "Creatinine", "setting": "Before", "value": "1.0 ± 0.1", "unit": "mg/dL"},
      {"measurement": "Direct Bilirubin", "setting": "Before", "value": "0.1 ± 0.03", "unit": "mg/dL"},
      {"measurement": "Globulin", "setting": "Before", "value": "2.3 ± 0.2", "unit": "g/dL"},
      {"measurement": "Glucose", "setting": "Before", "value": "74.1 ± 2.0", "unit": "mg/dL"},
      {"measurement": "HDL", "setting": "Before", "value": "51.4 ± 2.8", "unit": "mg/dL"},
      {"measurement": "Iron", "setting": "Before", "value": "68.0 ± 13.4", "unit": "µg/dL"},
      {"measurement": "Iron Binding Capacity", "setting": "Before", "value": "378.6 ± 32.1", "unit": "µg/dL"},
      {"measurement": "Iron Saturation", "setting": "Before", "value": "20.3 ± 5.0", "unit": "%"},
      {"measurement": "LDL", "setting": "Before", "value": "90.8 ± 7.0", "unit": "mg/dL"},
      {"measurement": "Lactate Dehydrogenase", "setting": "Before", "value": "155.9 ± 13.9", "unit": "IU/L"},
      {"measurement": "Phosphorus", "setting": "Before", "value": "4.2 ± 0.2", "unit": "mg/dL"},
      {"measurement": "Potassium", "setting": "Before", "value": "4.1 ± 0.1", "unit": "mEq/L"},
      {"measurement": "Protein", "setting": "Before", "value": "6.4 ± 0.1", "unit": "g/dL"},
      {"measurement": "Sodium", "setting": "Before", "value": "139.9 ± 0.7", "unit": "mEq/L"},
      {"measurement": "Total Bilirubin", "setting": "Before", "value": "0.5 ± 0.1", "unit": "mg/dL"},
      {"measurement": "Total Cholesterol", "setting": "Before", "value": "164.6 ± 10.5", "unit": "mg/dL"},
      {"measurement": "Triglycerides", "setting": "Before", "value": "112.6 ± 18.4", "unit": "mg/dL"},
      {"measurement": "UIBC", "setting": "Before", "value": "310.6 ± 42.4", "unit": "µg/dL"},
      {"measurement": "Uric Acid", "setting": "Before", "value": "4.7 ± 0.1", "unit": "mg/dL"},
      {"measurement": "A:G Ratio % Change", "setting": "Before to After", "value": "−2.6", "unit": "%"},
      {"measurement": "Alanine Aminotransferase % Change", "setting": "Before to After", "value": 0.0, "unit": "%"},
      {"measurement": "Albumin % Change", "setting": "Before to After", "value": 4.5, "unit": "%"},
      {"measurement": "Alkaline Phosphatase % Change", "setting": "Before to After", "value": 14.5, "unit": "%"},
      {"measurement": "Aspartate Aminotransferase % Change", "setting": "Before to After", "value": "−8.6", "unit": "%"},
      {"measurement": "Blood Urea Nitrogen % Change", "setting": "Before to After", "value": "−4.3", "unit": "%"},
      {"measurement": "CO2 % Change", "setting": "Before to After", "value": 12.1, "unit": "%"},
      {"measurement": "Chloride % Change", "setting": "Before to After", "value": "−0.4", "unit": "%"},
      {"measurement": "Cholesterol Ratio % Change", "setting": "Before to After", "value": "−2.3", "unit": "%"},
      {"measurement": "Creatinine % Change", "setting": "Before to After", "value": "−0.6", "unit": "%"},
      {"measurement": "Direct Bilirubin % Change", "setting": "Before to After", "value": 6.0, "unit": "%"},
      {"measurement": "Gamma-glutamyl % Change", "setting": "Before to After", "value": 5.7, "unit": "%"},
      {"measurement": "Globulin % Change", "setting": "Before to After", "value": 6.0, "unit": "%"},
      {"measurement": "Glucose % Change", "setting": "Before to After", "value": 7.8, "unit": "%"},
      {"measurement": "HDL % Change", "setting": "Before to After", "value": 9.7, "unit": "%"},
      {"measurement": "Iron % Change", "setting": "Before to After", "value": "−21.0", "unit": "%"},
      {"measurement": "Iron Binding Capacity % Change", "setting": "Before to After", "value": 4.4, "unit": "%"},
      {"measurement": "Iron Saturation % Change", "setting": "Before to After", "value": "−16.7", "unit": "%"},
      {"measurement": "LDL % Change", "setting": "Before to After", "value": 5.9, "unit": "%"},
      {"measurement": "Lactate Dehydrogenase % Change", "setting": "Before to After", "value": "−12.3", "unit": "%"},
      {"measurement": "Phosphorus % Change", "setting": "Before to After", "value": 6.2, "unit": "%"},
      {"measurement": "Potassium % Change", "setting": "Before to After", "value": 14.0, "unit": "%"},
      {"measurement": "Protein % Change", "setting": "Before to After", "value": 5.1, "unit": "%"},
      {"measurement": "Sodium % Change", "setting": "Before to After", "value": 1.2, "unit": "%"},
      {"measurement": "Total Bilirubin % Change", "setting": "Before to After", "value": 2.6, "unit": "%"},
      {"measurement": "Total Cholesterol % Change", "setting": "Before to After", "value": 7.4, "unit": "%"},
      {"measurement": "Triglycerides % Change", "setting": "Before to After", "value": 7.8, "unit": "%"},
      {"measurement": "UIBC % Change", "setting": "Before to After", "value": 7.9, "unit": "%"},
      {"measurement": "Uric Acid % Change", "setting": "Before to After", "value": 1.9, "unit": "%"},
      {"measurement": "Aspartate Aminotransferase", "setting": "Before", "value": "23.3 ± 0.9"},
      {"measurement": "Gamma-glutamyl", "setting": "Before", "value": "13.3 ± 1.2"}
    ]}
  ]
}
